Earlier results, collected in publication PMC6311893, “Computational prediction of plasma protein binding of cyclic peptides from small molecule experimental data using sparse modeling techniques” (BMC Bioinformatics, 2018).

Test system: plasma protein
Conditions: cited from earlier work

Compound	PPB (fb)
COc1cc(C)c(/C=C/C(C)=C/C=C/C(C)=C/C(=O)O)c(C)c1C [acitretin]	0.99

Same assay, conditions: fraction bound to plasma protein; small molecule dataset, sheet 1-SM (Set Dte = test, Dtr = training); ref Ingle et al.; cited from earlier work

Compound	PPB (fb)
CN1CCC(=C2c3ccccc3CCc3sccc32)CC1 [pizotyline]	0.91
C[C@]12CCC(=O)C=C1C=C[C@@H]1[C@@H]2CC[C@@]2(C)[C@H]1CC[C@@]2(O)CCC(=O)O [canrenoate]	0.94
CCOC(=O)[C@H](CCc1ccccc1)N[C@H]1CCc2ccccc2N(CC(=O)O)C1=O [benazepril]	0.96
CCCCCOC(=O)Nc1nc(=O)n([C@@H]2O[C@H](C)[C@@H](O)[C@H]2O)cc1F [capecitabine]	0.3
CC1(C)S[C@@H]2[C@H](/N=C/N3CCCCCC3)C(=O)N2[C@H]1C(=O)O [amdinocillin]	0.14
N=C(N)c1ccc(C(=O)N[C@@H](Cc2ccc(O)cc2)C(=O)N2CCC(OCC(=O)O)CC2)cc1 [Lamifiban]	0.06
CC(C)(O)C(Cl)(Cl)Cl [chlorobutanol]	0.55

Same assay, conditions: fraction bound to plasma protein; small molecule dataset, sheet 1-SM, Set Dtr; ref Ingle et al.; cited from earlier work

Compound	PPB (fb)
Nc1ccn([C@@H]2O[C@H](CO)[C@@H](O)C2(F)F)c(=O)n1 [Gemcitabine]	0.01
CCC(=O)O[C@]1(C(=O)SCF)[C@H](C)C[C@H]2[C@@H]3C[C@H](F)C4=CC(=O)C=C[C@]4(C)[C@@]3(F)[C@@H](O)C[C@@]21C [Fluticasone propionate]	0.89
Cc1[nH]cnc1CN1CCc2c(c3ccccc3n2C)C1=O [Alosetron]	0.72
OC(Cn1cncn1)(Cn1cncn1)c1ccc(F)cc1F [Fluconazole]	0.16
COc1cccc(OC)c1C(=O)N[C@@H]1C(=O)N2[C@@H]1SC(C)(C)[C@@H]2C(=O)O [Methicillin]	0.48
CN1C2CCCC1CC(NC(=O)c1nn(C)c3ccccc13)C2 (stereo not shown) [Granisetron]	0.65

Same assay, conditions: fraction bound to plasma protein; small molecule dataset, sheet 1-SM; ref Ingle et al.; cited from earlier work

Compound	PPB (fb)
CCC(COc1c(Cl)cccc1Cl)C(=O)NC1C(=O)N2C1SC(C)(C)C2C(=O)O (stereo not shown) [penicillin63]	0.95
CC(C)(Oc1ccccc1)C(=O)NC1C(=O)N2C1SC(C)(C)C2C(=O)O (stereo not shown) [penicillin49]	0.92
CN[C@@H]1[C@@H](O)[C@@H](O[C@@H]2[C@@H](O)[C@H](O[C@H]3OC(CN)=CC[C@H]3N)[C@@H](N)C[C@H]2N)OC[C@]1(C)O [Sisomicin]	0.85
O=C(O)c1ccccc1O [salicylate]	0.85
CC(C)(C)NCC(O)c1cc(O)cc(O)c1 (stereo not shown) [Terbutaline]	0.23
OC(c1cc(C(F)(F)F)nc2c(C(F)(F)F)cccc12)C1CCCCN1 (stereo not shown) [mefloquine]	0.97
NCC1OC(OC2C(CO)OC(OC3C(O)C(N)CC(N)C3OC3OC(CN)C(O)C(O)C3N)C2O)C(N)C(O)C1O (stereo not shown) [neomycin]	0.2
CC1(C)SC2C(NC(=O)COc3cccc(F)c3)C(=O)N2C1C(=O)O (stereo not shown) [penicillin53]	0.83
COc1ncnc(NS(=O)(=O)c2ccc(N)cc2)c1OC [sulfadoxine]	0.94
COC(C(=O)NC1C(=O)N2C1SC(C)(C)C2C(=O)O)c1cc(Cl)c(Cl)c(Cl)c1 (stereo not shown) [penicillin43]	0.96
O=C(O)c1ccccc1Nc1cccc(C(F)(F)F)c1 [flufenamic acid]	0.9
CN1CCc2c(c3ccccc3n2Cc2ccccc2)C1 [mebhydrolin]	0.04

Same assay, conditions: plasma; cited from earlier work

Compound	PPB (fb)
C=CCC1(C(C)CCC)C(=O)NC(=O)NC1=O (stereo not shown) [quinalbarbitone]	0.5
CCN(C)C(=O)Oc1cccc([C@H](C)N(C)C)c1 [Rivastigmine]	0.4
lymecycline	0.45
CC(C)CC(N(C)C)C1(c2ccc(Cl)cc2)CCC1 (stereo not shown) [sibutramine]	0.95
CCCC(C)C1(CC)C(=O)NC(=S)NC1=O (stereo not shown) [Thiopental]	0.84
COc1ccc2c(C(=O)c3ccc(Cl)cc3)c(C)n(CC(=O)O)c2c1 [Clometacin]	0.99
CNC1(c2ccccc2Cl)CCCCC1=O (stereo not shown) [Ketamine]	0.44
Felodipine	1
